The values below come from patent publication US10570179B2, “Substituted urea depsipeptide analogs as activators of the CLPP endopeptidase” (priority 2016, dated 2020).

In brackets after ≈: the same amount, converted by molar mass. Read-outs that look alike come from different tables or passages of the source. Numbered stars: 1 amine (or outer) side, 2 acyl side, 3 side chain; on linkers, the order of the positions; unused ones are H or OH. Bridge positions count the residues as written; N and C are the ends. Square brackets hold non-standard residues; d marks the D form. Peptide text beside a SMILES is read from it. * marks the point of attachment. Phe(3-CF3) = N[C@@H](Cc1cccc(C(F)(F)F)c1)C(=O)O; Piperazine(2S-CO,4-Me) = CN1CCN[C@H](C(=O)O)C1; NH(1,3-benzodioxol-5-yl) = c1cc2c(cc1N*)OCO2; Phe(3-Me) = Cc1cccc(C[C@H](N)C(=O)O)c1; NH(4-Cl-2-F-phenyl) = Fc1cc(Cl)ccc1N*; Pro(4R-Me) = C[C@H]1CN[C@H](C(=O)O)C1; NH(4-Et-phenyl) = CCc1ccc(N*)cc1; NH(4-Me-phenyl) = Cc1ccc(N*)cc1; CO = O=C([*:1])[*:2]

Series [1] deals with S. aureus ΔClpP. Description: Minimal inhibitory concentration, microbroth dilution. It is filed as cell-based, Staphylococcus aureus. The settings on record: MIC; ClpP inactivated. The gist of the method:
(§1)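 MIC is recorded by eye as the lowest drug concentration that stops bacterial growth. Compound is serially diluted twofold in broth, starting at 200 μM final, and bacteria are added at roughly 10^5 cfu/mL. Incubation runs overnight at 37 °C under aerobic conditions, per CLSI guidance.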
For orientation: Dilution methods test growth across graded concentrations, often in twofold steps.

Series [2] has as its system S. pyogenes. Described as above. Type of series: cell-based. The settings on record: Streptococcus pyogenes, read-out: Minimal Inhibitory Concentrations (μM) S. pyogenes. The gist of the method: as §1
For series [3], the target named is T1, S. aureus ClpP (Sa-ClpP) (Staphylococcus aureus, UniProt Q2G036).
T1 construct: made in house; host or cells: E. coli BL21 (DE3)
Kind of series: Casein-BODIPY digestion assay (ClpP activation). Type of series: biochemical.

A short description of series [4]: Solubility determination. Type of series: physicochemical. The settings on record: for solubility kinetic at 10 min: 22 °C, aqueous buffer, kinetic from dmso stock. The gist of the method:
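DMSO stock spiked into DPBS at 100 µM final, in triplicate, shaken 10 min, then centrifuged 20 min at 22 °C. Supernatant quantified by UPLC-UV and single-ion-recording MS against DMSO calibration standards (0.098–100 µM), using 1/x²-weighted linear regression.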

T1 sequence (Q2G036 whole entry): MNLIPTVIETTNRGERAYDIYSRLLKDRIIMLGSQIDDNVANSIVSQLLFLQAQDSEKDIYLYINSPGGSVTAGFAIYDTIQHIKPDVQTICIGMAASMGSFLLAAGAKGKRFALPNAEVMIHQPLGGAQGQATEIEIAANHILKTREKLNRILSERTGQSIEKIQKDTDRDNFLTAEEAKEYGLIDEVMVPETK

Consider `Cc1ccc(NC(=O)N[C@@H](Cc2cccc(C)c2)C(=O)N[C@H]2COC(=O)[C@@H]3C[C@@H](C)CN3C(=O)[C@H](C)NC(=O)[C@@H]3CN(C)CCN3C(=O)[C@@H]3CCCN3C2=O)cc1` [Compound 15, (S)-3-(M-TOLYL)-2-(3-(P-TOLYL)UREIDO)-N-((6AS,12S,15AS,17R,21S,23AS)-2,17,21-TRIMETHYL-6,11,15,20,23-PENTAOXOOCTADECAHYDRO-2H,6H,11H,15H-PYRAZINO[2,1-I]DIPYRROLO[2,1-C:2′,1′-L][1]OXA[4,7,10,13]TETRAAZACYCLOHEXADECIN-12-YL)PROPANAMIDE] ({NH(4-Me-phenyl)-CO}-[Phe(3-Me)]SP[Piperazine(2S-CO,4-Me)]A[Pro(4R-Me)]; ester 2-C), for which the “Minimal Inhibitory Concentrations (μM) S. aureus ΔClpP” value in series [1] is more than 20 µM. Further, the MIC in series [2] was determined as 0.313 µM (≈ 0.246 µg/mL). In addition, the EC50 (usually the concentration that produces a half-maximal response) in series [3] came to 1.58 ± 0.2 µM. In addition, in series [4] (solubility in DPBS, 100 μM test samples, LCMS, read-out: LCMS), the solubility kinetic at 10 min worked out at 57.2 ± 1.1 µM (≈ 45 µg/mL). Besides, the “μsol (μM)” value in series [4] (solubility) came to 25.1 ± 1.7 µM.
On to `CCc1ccc(NC(=O)N[C@@H](Cc2cccc(C)c2)C(=O)N[C@H]2COC(=O)[C@@H]3C[C@@H](C)CN3C(=O)[C@H](C)NC(=O)[C@@H]3CN(C)CCN3C(=O)[C@@H]3CCCN3C2=O)cc1` [Compound 16, (S)-2-(3-(4-ETHYLPHENYL)UREIDO)-3-(M-TOLYL)-N-((6AS,12S,15AS,17R,21S,23AS)-2,17,21-TRIMETHYL-6,11,15,20,23-PENTAOXOOCTADECAHYDRO-2H,6H,11H,15H-PYRAZINO[2,1-I]DIPYRROLO[2,1-C:2′,1′-L][1]OXA[4,7,10,13]TETRAAZACYCLOHEXADECIN-12-YL)PROPANAMIDE] ({NH(4-Et-phenyl)-CO}-[Phe(3-Me)]SP[Piperazine(2S-CO,4-Me)]A[Pro(4R-Me)]; ester 2-C), for which the “Minimal Inhibitory Concentrations (μM) S. aureus ΔClpP” value in series [1] was more than 20 µM. Also, the MIC in series [2] (MIC) is 0.156 µM (≈ 0.125 µg/mL). For the same compound, it took 0.63 ± 0.1 µM to reach a half-maximal effect in series [3] (EC50). Also, in series [4], the “μsol (μM)” value was 47.4 ± 5.7 µM and the solubility kinetic at 10 min stood at 53.2 ± 6.5 µM (≈ 42.6 µg/mL).
The matching figures for `Cc1cccc(C[C@H](NC(=O)Nc2ccc3c(c2)OCO3)C(=O)N[C@H]2COC(=O)[C@@H]3C[C@@H](C)CN3C(=O)[C@H](C)NC(=O)[C@@H]3CN(C)CCN3C(=O)[C@@H]3CCCN3C2=O)c1` [Compound 17, (S)-2-(3-(BENZO[D][1,3]DIOXOL-5-YL)UREIDO)-3-(M-TOLYL)-N-((6AS,12S,15AS,17R,21S,23AS)-2,17,21-TRIMETHYL-6,11,15,20,23-PENTAOXOOCTADECAHYDRO-2H,6H,11H,15H-PYRAZINO[2,1-I]DIPYRROLO[2,1-C:2′,1′-L][1]OXA[4,7,10,13]TETRAAZACYCLOHEXADECIN-12-YL)PROPANAMIDE] ({NH(1,3-benzodioxol-5-yl)-CO}-[Phe(3-Me)]SP[Piperazine(2S-CO,4-Me)]A[Pro(4R-Me)]; ester 2-C): more than 20 µM, 1.25 µM (≈ 1.02 µg/mL), 2.64 ± 0.1 µM, 71.1 ± 0.7 µM and 64.6 ± 2 µM (≈ 52.8 µg/mL).
For `C[C@@H]1C[C@H]2C(=O)OC[C@H](NC(=O)[C@H](Cc3cccc(C(F)(F)F)c3)NC(=O)Nc3ccc(Cl)cc3F)C(=O)N3CCC[C@H]3C(=O)N3CCN(C)C[C@H]3C(=O)N[C@@H](C)C(=O)N2C1` [Compound 18, (S)-2-(3-(4-CHLORO-2-FLUOROPHENYL)UREIDO)-3-(3-(TRIFLUOROMETHYL)PHENYL)-N-((6AS,12S,15AS,17R,21S,23AS)-2,17,21-TRIMETHYL-6,11,15,20,23-PENTAOXOOCTADECAHYDRO-2H,6H,11H,15H-PYRAZINO[2,1-I]DIPYRROLO[2,1-C:2′,1′-L][1]OXA[4,7,10,13]TETRAAZACYCLOHEXADECIN-12-YL)PROPANAMIDE] ({NH(4-Cl-2-F-phenyl)-CO}-[Phe(3-CF3)]SP[Piperazine(2S-CO,4-Me)]A[Pro(4R-Me)]; ester 2-C), in that order: more than 20 µM, 0.625 µM (≈ 0.55 µg/mL), 1.75 ± 0.1 µM, 22.7 ± 0.8 µM and 22.6 ± 2.1 µM (≈ 19.9 µg/mL).
